This is an account of results in ChEMBL document CHEMBL4402608 (J Med Chem, 2020).

The target of one data set is dopamine D4 receptor (Homo sapiens, UniProt P21917). In words: Displacement of [3H]-N-methylspiperone from recombinant human D4 receptor stably expressed in HEK cell membranes at 10 uM measured after 90 mins by microbeta scintillation counting method relative to control. The following applies: probe [3H]-N-methylspiperone. Background: In a radioligand displacement assay an active substance lowers the binding of a labelled ligand.

Data set [1] has as its target 5-hydroxytryptamine receptor 2C (Homo sapiens) (UniProt P28335). Put plainly: Displacement of [3H]-Mesulergine from recombinant human 5HT2C receptor expressed in HEK cell membranes at 10 uM measured after 90 mins by microbeta scintillation counting method relative to control. Conditions: probe [3H]-Mesulergine; call rule not given here.
The target in data set [2] is beta3 adrenergic receptor (Homo sapiens, UniProt P13945). In words: Displacement of [3H]-CGP12177 from recombinant human beta3 adrenergic receptor expressed in HEK Flp-In cell membranes at 10 uM measured after 90 mins by microbeta scintillation counting method relative to control. Conditions: probe [3H]-CGP12177.
Data set [3] concerns the target Sodium-dependent serotonin transporter (Homo sapiens, UniProt P31645). Put plainly: Displacement of [3H]-citalopram from human SERT receptor expressed in stable HEK cell membranes after 90 mins by microbeta scintillation counting method.
Data set [4] addresses T1, Alpha-2C adrenergic receptor (Homo sapiens, UniProt P18825).
T1 sequence (P18825 whole entry): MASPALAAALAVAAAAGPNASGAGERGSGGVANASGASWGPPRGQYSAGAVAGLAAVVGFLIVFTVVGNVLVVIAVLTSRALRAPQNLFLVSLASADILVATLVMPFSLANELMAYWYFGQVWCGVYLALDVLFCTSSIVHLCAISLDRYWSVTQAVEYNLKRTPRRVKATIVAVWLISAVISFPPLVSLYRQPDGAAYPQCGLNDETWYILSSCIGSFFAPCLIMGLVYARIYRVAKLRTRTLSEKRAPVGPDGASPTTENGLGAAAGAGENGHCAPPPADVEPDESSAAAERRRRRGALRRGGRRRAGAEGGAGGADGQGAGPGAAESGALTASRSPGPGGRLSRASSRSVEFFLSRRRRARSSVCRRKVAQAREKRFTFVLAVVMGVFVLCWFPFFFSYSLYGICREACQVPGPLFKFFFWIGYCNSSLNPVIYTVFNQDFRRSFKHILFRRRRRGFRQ
Put plainly: Displacement of [3H]-rauwolscine from recombinant human alpha2C adrenergic receptor stably expressed in MDCK cell membranes at 10 uM measured after 90 mins by microbeta scintillation counting method relative to control. Conditions: probe [3H]-rauwolscine.

A further data set addresses 5HT6 receptor (Homo sapiens, UniProt P50406). Put plainly: Displacement of [3H]-LSD from recombinant human 5HT6 receptor stably expressed in HEK cell membranes at 10 uM measured after 90 mins by microbeta scintillation counting method relative to control. Conditions: probe [3H]-LSD.
Data set [5] has as its target Kappa-type opioid receptor (Homo sapiens, UniProt P41145). Put plainly: Displacement of [3H]-U69593 from KOR (unknown origin) measured after 90 mins by microbeta scintillation counting method.
Another data set has as its target 5HT1D receptor (Homo sapiens, UniProt P28221). In words: Displacement of [3H]5-CT from recombinant human 5HT1D receptor transiently expressed in HEKT cell membranes at 10 uM measured after 90 mins by microbeta scintillation counting method relative to control. The following applies: probe [3H]5-CT.
Data set [6] deals with T2, Alpha-1D adrenergic receptor (Homo sapiens, UniProt P25100).
T2 sequence (P25100 whole entry): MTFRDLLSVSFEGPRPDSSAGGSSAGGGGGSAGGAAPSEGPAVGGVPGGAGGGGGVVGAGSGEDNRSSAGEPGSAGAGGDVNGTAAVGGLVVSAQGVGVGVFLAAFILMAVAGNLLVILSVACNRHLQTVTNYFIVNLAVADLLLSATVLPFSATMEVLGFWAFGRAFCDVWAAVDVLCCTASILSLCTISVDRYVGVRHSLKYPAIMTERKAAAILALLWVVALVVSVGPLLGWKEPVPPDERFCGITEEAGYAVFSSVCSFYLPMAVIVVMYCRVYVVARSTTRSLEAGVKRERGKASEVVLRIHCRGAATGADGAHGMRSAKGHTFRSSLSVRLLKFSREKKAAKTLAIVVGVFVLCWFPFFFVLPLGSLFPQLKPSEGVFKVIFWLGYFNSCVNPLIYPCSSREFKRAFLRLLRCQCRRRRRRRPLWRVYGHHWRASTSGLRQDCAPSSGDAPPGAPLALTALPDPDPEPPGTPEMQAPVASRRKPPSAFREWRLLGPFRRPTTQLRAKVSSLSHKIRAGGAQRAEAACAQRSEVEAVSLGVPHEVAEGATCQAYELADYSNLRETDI
Put plainly: Displacement of [3H]-prazosin from recombinant human alpha1D adrenergic receptor at 10 uM measured after 90 mins by microbeta scintillation counting method relative to control. Conditions: probe [3H]-prazosin.

The target of data set [7] is Alpha-2A adrenergic receptor (Homo sapiens, UniProt P08913). In words: Displacement of [3H]-rauwolscine from recombinant human alpha2A adrenergic receptor stably expressed in MDCK cell membranes at 10 uM measured after 90 mins by microbeta scintillation counting method relative to control. Conditions: probe [3H]-rauwolscine.
Data set [8] addresses T3, Alpha-1B adrenergic receptor (Homo sapiens, UniProt P35368).
T3 sequence (P35368 whole entry): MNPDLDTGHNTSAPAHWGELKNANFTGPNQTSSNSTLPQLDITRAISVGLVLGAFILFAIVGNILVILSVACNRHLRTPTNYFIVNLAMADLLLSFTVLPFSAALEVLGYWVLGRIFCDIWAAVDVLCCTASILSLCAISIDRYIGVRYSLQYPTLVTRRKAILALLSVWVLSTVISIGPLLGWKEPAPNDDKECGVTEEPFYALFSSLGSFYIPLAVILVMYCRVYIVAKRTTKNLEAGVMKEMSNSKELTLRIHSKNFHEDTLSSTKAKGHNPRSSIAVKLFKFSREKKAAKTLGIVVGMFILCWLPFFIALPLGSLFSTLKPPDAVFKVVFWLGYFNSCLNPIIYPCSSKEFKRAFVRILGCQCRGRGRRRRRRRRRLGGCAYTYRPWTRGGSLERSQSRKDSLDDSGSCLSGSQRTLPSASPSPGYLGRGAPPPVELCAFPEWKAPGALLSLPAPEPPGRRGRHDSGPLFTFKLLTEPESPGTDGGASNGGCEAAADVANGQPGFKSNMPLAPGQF
Put plainly: Displacement of [3H]-prazosin from recombinant human alpha1B adrenergic receptor transiently expressed in HEKT cell membranes measured after 90 mins by microbeta scintillation counting method.

For data set [9], the target named is 5HT3 receptor (5-hydroxytryptamine receptor 3A) (Homo sapiens, UniProt P46098). Put plainly: Displacement of [3H]GR65630 from recombinant human 5HT3 receptor transiently expressed in HEKT cell membranes at 10 uM measured after 90 mins by microbeta scintillation counting method relative to control. Conditions: probe [3H]GR65630.
The target in a further data set is 5HT1B receptor (Homo sapiens, UniProt P28222). In words: Displacement of [3H]5-CT from recombinant human 5HT1B receptor stably expressed in HEK cell membranes at 10 uM measured after 90 mins by microbeta scintillation counting method relative to control. The following applies: probe [3H]5-CT.

`CCCN(CC[C@]1(O)C[C@H](NC(=O)c2ccc3ccccc3c2)C1)[C@H]1CCc2nc(N)sc2C1`: the inhibition (as a rule, the drop in the measured response relative to a control, in per cent) at […], 10 µM on dopamine D4 receptor was > 50%; in data set [1], > 50%; in data set [2], < 50%; in data set [4] it was < 50%; on 5HT6 receptor it was < 50%; on 5HT1D receptor, < 50%. In addition, the inhibition at […], 10 µM in [6] was > 50%; in data set [7] it was < 50%; in data set [9], < 50%; on 5HT1B receptor it was < 50%. The Ki (usually the dissociation constant of the complex between target and ligand, obtained from inhibition or displacement) was 32 nM in data set [3] (read-out: Ki), > 10000 nM in data set [5] (read-out: Ki) and 666 nM in data set [8] (read-out: Ki).
In the case of `CCCN[C@H]1CCc2nc(N)sc2C1` [PRAMIPEXOLE], the inhibition at […], 10 µM on dopamine D4 receptor was > 50%; in data set [1] it was < 50%; in [2], > 50%; in [4] it was > 50%; at 5HT6 receptor it was > 50%; on 5HT1D receptor it was > 50%. For the same compound, the inhibition at […], 10 µM in data set [6] is < 50%; in data set [7], > 50%; in data set [9], > 50%; on 5HT1B receptor, > 50%. The Ki result in data set [3], in [5] and in data set [8] was “Not Active” throughout.
